The record followed here is PMC3152620 (Peptides, 2011).

No end group written: not given here. Bounds are passed on as bounds.

This experiment has as its target human NMB receptor (Homo sapiens, UniProt P28336). As to the kind of experiment: Binding to hNMB receptors, both cell lines. The note with it: relative to the natural ligand NMB.

human NMB receptor, sequence (P28336 whole entry): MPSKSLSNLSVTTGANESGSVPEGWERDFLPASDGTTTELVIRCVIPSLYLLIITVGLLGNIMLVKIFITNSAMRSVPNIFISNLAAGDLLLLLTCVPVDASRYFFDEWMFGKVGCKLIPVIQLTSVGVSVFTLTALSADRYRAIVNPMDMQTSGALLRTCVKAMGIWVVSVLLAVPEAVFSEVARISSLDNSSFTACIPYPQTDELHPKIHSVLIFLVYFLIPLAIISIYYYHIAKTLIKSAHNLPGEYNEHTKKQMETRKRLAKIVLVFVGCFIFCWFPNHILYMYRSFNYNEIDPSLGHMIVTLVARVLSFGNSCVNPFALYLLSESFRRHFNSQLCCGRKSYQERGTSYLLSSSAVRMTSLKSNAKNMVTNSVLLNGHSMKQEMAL

Turning to “LSWDLPEPRSRAGKIRVHPRGNLWATGHFM-NH2 [NMB30, Neuromedin B (1–30)]”, the “Fold lower affinity for human NMB receptor than NMB” value is reported as more than 3 fold.
